According to patent publication US20070128217A1 (priority 2003, published 2007):

What was measured:
[1] = test system: rabbit serum obtained by immunizing a rabbit with the SARS-CoV strain Frankfurt 1; type: binding; design: Binding of a rabbit serum to linear peptides / Binding of a rabbit serum to looped peptides / Rabbit serum linear peptides / Rabbit serum looped peptides / Binding of a rabbit serum to linear peptides of protein N of SARS-CoV Urbani (Rabbit serum linear peptides) / Binding of a rabbit serum to looped/cyclic peptides of protein N of SARS-CoV Urbani (Rabbit serum looped peptides): unit not given here
[2] = test system: recombinant human anti-SARS-CoV antibody 03-018; type: binding; design: Binding of antibody 03-018 to linear peptides of the N protein of SARS-CoV Urbani / Binding of antibody 03-018 to looped/cyclic peptides of the N protein of SARS-CoV Urbani: unit not given here
[3] = test system: antibodies in sera from SARS patients (sera 1a, 1b, 2, 6, 37, 62, London, SARS-yellow, SARS-green); type: binding, human; design: Binding of serum 6 to linear peptides of protein X1 of SARS-CoV Urbani / Binding of serum 37 to linear peptides of protein X1 of SARS-CoV Urbani / Binding of serum 6 to looped/cyclic peptide (PEPSCAN-ELISA) / Binding of serum 37 to looped/cyclic peptide (PEPSCAN-ELISA) / Binding of serum 37 to looped/cyclic peptides of protein X1 of SARS-CoV Urbani / Binding of serum 6 to linear peptides of protein X2 / Binding of serum 37 to linear peptides of protein X2 / Binding of serum 37 to looped/cyclic peptides of protein X2 of SARS-CoV Urbani / Binding of serum 6 to linear peptides of protein M of SARS-CoV Urbani / Binding of serum 37 to linear peptides of protein M of SARS-CoV Urbani / Binding of serum 6 to looped/cyclic peptides of protein M of SARS-CoV Urbani / Binding of serum 37 to looped/cyclic peptides of protein M of SARS-CoV Urbani / Binding of serum 6 to linear peptides of protein X3 of SARS-CoV Urbani / Binding of serum 37 to linear peptides of protein X3 of SARS-CoV Urbani / Binding of serum 37 to looped/cyclic peptides of protein X3 of SARS-CoV Urbani / Binding of serum 6 to linear peptides of protein X4 of SARS-CoV Urbani / Binding of serum 37 to linear peptides of protein X4 of SARS-CoV Urbani / Binding of serum 37 to looped/cyclic peptides of protein X4 of SARS-CoV Urbani / Binding of serum 6 to linear peptides of protein X5 of SARS-CoV Urbani / Binding of serum 37 to linear peptides of protein X5 of SARS-CoV Urbani / Binding of serum 37 to looped/cyclic peptides of protein X5 of SARS-CoV Urbani / Binding of serum 6 to linear peptides of protein N of SARS-CoV Urbani / Binding of serum 37 to linear peptides of protein N of SARS-CoV Urbani / Binding of serum 6 to linear peptide (PEPSCAN-ELISA) / Binding of serum 1a to looped/cyclic peptides of protein N of SARS-CoV Urbani / Binding of serum 1b to looped/cyclic peptides of protein N of SARS-CoV Urbani / Binding of serum 2 to looped/cyclic peptides of protein N of SARS-CoV Urbani / Binding of serum 6 to looped/cyclic peptides of protein N of SARS-CoV Urbani / Binding of serum 37 to looped/cyclic peptides of protein N of SARS-CoV Urbani / Binding of serum 62 to looped/cyclic peptides of protein N of SARS-CoV Urbani / Binding of serum London to looped/cyclic peptides of protein N of SARS-CoV Urbani / Binding of serum SARS-green to looped/cyclic peptides of protein N of SARS-CoV Urbani: unit not given here
[4] = test system: control sera (pooled serum of ten healthy LUMC hospital workers; commercial negative donor pooled serum from the Dutch bloodbank); type: binding, human; design: Binding of Control serum LUMC to linear peptides / Binding of Control serum Blood-bank to linear peptides / Binding of Control serum LUMC to looped peptides / Binding of Control Serum Blood-Bank to Looped peptides / Binding of Control serum LUMC to linear peptides of the protein M of SARS-CoV Urbani / Binding of Control serum Blood-bank to linear peptides of the protein M of SARS-CoV Urbani / Binding of Control serum LUMC to looped peptides of the protein M of SARS-CoV Urbani / Binding of Control Serum Blood-Bank to Looped peptides of the protein M of SARS-CoV Urbani: unit not given here

Row | Sequence | Binding of a rabbit serum to linear peptides of protein N of SARS-CoV Urbani (Rabbit serum linear peptides) [1] | Binding of a rabbit serum to looped/cyclic peptides of protein N of SARS-CoV Urbani (Rabbit serum looped peptides) [1] | Binding of antibody 03-018 to linear peptides of the N protein of SARS-CoV Urbani [2] | Binding of antibody 03-018 to looped/cyclic peptides of the N protein of SARS-CoV Urbani [2] | Binding of serum 1a to linear peptides of protein N of SARS-CoV Urbani [3] | Binding of serum 1a to looped/cyclic peptides of protein N of SARS-CoV Urbani [3] | Binding of serum 1b to linear peptides of protein N of SARS-CoV Urbani [3] | Binding of serum 1b to looped/cyclic peptides of protein N of SARS-CoV Urbani [3] | Binding of serum 2 to linear peptides of protein N of SARS-CoV Urbani [3] | Binding of serum 2 to looped/cyclic peptides of protein N of SARS-CoV Urbani [3] | Binding of serum 6 to looped/cyclic peptides of protein N of SARS-CoV Urbani [3] | Binding of serum 37 to looped/cyclic peptides of protein N of SARS-CoV Urbani [3] | Binding of serum 62 to looped/cyclic peptides of protein N of SARS-CoV Urbani [3] | Binding of serum London to looped/cyclic peptides of protein N of SARS-CoV Urbani [3] | Binding of serum SARS-green to looped/cyclic peptides of protein N of SARS-CoV Urbani [3] | Binding of serum SARS-yellow to looped/cyclic peptides of protein N of SARS-CoV Urbani [3] | Binding of Control Serum Blood-Bank to Looped peptides [4] | Binding of Control serum Blood-bank to linear peptides [4] | Binding of Control serum LUMC to linear peptides [4] | Binding of Control serum LUMC to looped peptides [4] | other results
1 | GPEASLPYGANKEGI | 0.1 | 0.3 | 0.1 | 0.2 | 0.3 | 0.3 | 0.2 | 0.2 | 0.3 | 0.4 | 0.2 | 0.6 | 0.5 | 0.4 | 0.5 | 0.3 | 0.6 | 0.9 | 0.9 | 0.8 | Binding of serum 6 to linear peptides of protein N of SARS-CoV Urbani [3]: 0.3; Binding of serum 37 to linear peptides of protein N of SARS-CoV Urbani [3]: 0.8; Binding of serum 62 to linear peptides of protein N of SARS-CoV Urbani [3]: 0.9; Binding of serum London to linear peptides of protein N of SARS-CoV Urbani [3]: 0.6; Binding of serum SARS-green to linear peptides of protein N of SARS-CoV Urbani [3]: 0.7; Binding of serum SARS-yellow to linear peptides of protein N of SARS-CoV Urbani [3]: 0.6
2 | GRNGARPKQRRPQGL | 0.2 | 0.7 | 0.1 | 0.2 | 0.2 | 0.2 | 0.1 | 0.1 | 0.2 | 0.2 | 0.2 | 0.4 | 0.3 | 0.3 | 0.2 | 0.3 | 0.5 | 0.7 | 0.6 | 0.5 | Binding of serum 6 to linear peptides of protein N of SARS-CoV Urbani [3]: 0.2; Binding of serum 37 to linear peptides of protein N of SARS-CoV Urbani [3]: 0.7; Binding of serum 62 to linear peptides of protein N of SARS-CoV Urbani [3]: 0.6; Binding of serum London to linear peptides of protein N of SARS-CoV Urbani [3]: 0.4; Binding of serum SARS-green to linear peptides of protein N of SARS-CoV Urbani [3]: 0.4; Binding of serum SARS-yellow to linear peptides of protein N of SARS-CoV Urbani [3]: 0.4
3 | GRRGPEQTQGNFGDQ | 0.1 | 0.2 | 0.1 | 0.2 | – | 0.4 | – | 0.3 | – | 0.4 | 0.2 | 0.5 | 0.6 | 0.5 | 0.4 | 0.5 | 0.6 | 0.6 | 0.6 | 0.6 | Recognition of the peptide by sera of SARS-CoV infected individuals, and form (linear, looped/cyclic) in which it is recognized [3]: recognized in linear form
